Assays:
[1] = target: T1, JAZ2 protein (Arabidopsis thaliana, UniProt O04197+Q9S7M2); experiment: JAZ2 protein stability (35S JAZ2-GUS staining); assay type: cell-based; details: JAZ2-GUS transgenic seedlings, 3 h
T1 construct: expressed in transfected cells
T1 sequence (Q9S7M2 1-249): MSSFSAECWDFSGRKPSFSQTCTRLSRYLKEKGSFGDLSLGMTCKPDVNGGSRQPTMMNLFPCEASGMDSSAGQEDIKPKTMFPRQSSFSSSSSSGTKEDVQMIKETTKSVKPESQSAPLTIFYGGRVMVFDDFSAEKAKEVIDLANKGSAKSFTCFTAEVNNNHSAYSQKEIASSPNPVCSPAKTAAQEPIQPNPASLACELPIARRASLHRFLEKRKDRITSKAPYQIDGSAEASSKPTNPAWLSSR
T1 sequence (O04197 1-592): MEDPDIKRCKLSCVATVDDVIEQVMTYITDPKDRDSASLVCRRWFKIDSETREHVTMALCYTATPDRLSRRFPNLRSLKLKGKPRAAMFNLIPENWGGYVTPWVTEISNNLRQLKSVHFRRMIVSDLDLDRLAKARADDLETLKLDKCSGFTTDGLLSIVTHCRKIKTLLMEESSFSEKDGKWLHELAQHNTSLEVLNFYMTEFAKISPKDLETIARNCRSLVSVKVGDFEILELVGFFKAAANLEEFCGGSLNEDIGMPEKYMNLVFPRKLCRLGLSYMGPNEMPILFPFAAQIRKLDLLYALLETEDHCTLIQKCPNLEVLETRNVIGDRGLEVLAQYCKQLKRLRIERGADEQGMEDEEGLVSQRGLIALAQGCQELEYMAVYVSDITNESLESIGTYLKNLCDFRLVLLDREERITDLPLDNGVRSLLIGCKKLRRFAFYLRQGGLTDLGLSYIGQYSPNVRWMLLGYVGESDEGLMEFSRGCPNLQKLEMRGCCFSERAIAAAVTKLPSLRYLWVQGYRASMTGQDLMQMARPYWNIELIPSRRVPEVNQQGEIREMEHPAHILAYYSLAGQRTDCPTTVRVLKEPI
T1 sequence (Q39255 1-160 partner): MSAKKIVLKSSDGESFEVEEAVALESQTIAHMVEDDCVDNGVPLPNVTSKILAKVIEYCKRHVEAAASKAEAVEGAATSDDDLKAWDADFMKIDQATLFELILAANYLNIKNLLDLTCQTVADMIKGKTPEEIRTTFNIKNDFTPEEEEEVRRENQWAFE
Description: For JAZ promoter:GUS expression experiments, five to seven days-old seedlings were treated with mock solution or 50 μM JA for 2 h and GUS stained as previously described (Fernandez-Calvo, P. et al. Plant Cell. 2011; 23(2): 701-715). For JAZ2 protein stability experiments, seven to nine days-old seedlings were treated with mock solution or 50 nM COR for 3 h. Then, samples were placed in staining solution containing 50 mM phosphate buffer, pH 7, 0.1% (v/v) Triton X-100 (Sigma-Aldrich), 2 mM 5-bromo-4-chloro-3-indolyl b-D glucuronic acid (X-Gluc, Glycosynth), 1 mM potassium-ferrocyanide (Sigma-Aldrich), and 1 mM potassium-ferricyanide (Sigma-Aldrich) and incubated at 37° C. overnight. After staining, the tissue was soaked several times in 75% ethanol and kept in 5% glycerol until being photographed with a Leica DMR UV/VIS microscope.

[2] = tested on: stomata guard cells; experiment: Stomatal aperture measurements (MAMP-induced closure, COR-induced reopening); assay type: cell-based, Arabidopsis; details: leaves incubated with MAMPs and 2 μM COR simultaneously
Description: Whole leaves from 4- to 6-week-old Arabidopsis plants were collected and exposed to white light for 1.30 hours while floating in a solution containing 50 mM KCl, 10 μm CaCl2, and 10 mm MES-KOH pH=6.1 (opening stomata buffer) with moderate shaking (50 rpm) to induce homogenous stomatal aperture among all Arabidopsis lines to compare. To do the MAMP-induced closure assays, the previous solution was removed and whole leaves were immersed in opening stomata buffer containing Pto DC3000 MAMP extracts at OD600=1,5 (7,5×10^8 cfu/ml), 2 μM of coronatine or a mock solution. Samples were further incubated under the same previous conditions for 4-5 hours. Then, leaves were rapidly peeled and abaxial epidermal peels were placed on cover slips and observed with a microscope (Leica DMR). Stomatal aperture (width/length) was measured using ImageJ software. Error bars represent standard error of the mean (SEM) (n=20). Stomatal experiments were repeated at least three independent times and representative results are shown.
We next analyzed the ability of JAZ2-3 to close stomata upon microbial perception and reopen it in the presence of COR. […] Typically, Pto DC3000 MAMPs were used at optical density at 600 nm OD600=1,5 (7,5×10^8 cfu/ml) for incubation with leaves (Stomatal Aperture Measurements) or Arabidopsis seedlings (Quantitative RT-PCR). […]

[3] = tested on: JAZ1 promoter; experiment: pJAZ1:GUS promoter expression (GUS staining); assay type: cell-based, Arabidopsis; details: 50 μM JA, 2 h
Description: (§1) Transgenic Arabidopsis lines expressing pJAZ:GUS promoter fusions were obtained by cloning the corresponding pJAZ PCR products (pJAZ1 fw cacc[…] [SEQ ID NO: 29]; pJAZ1 rev […] [SEQ ID NO: 30]; pJAZ2 fw cacc[…] [SEQ ID NO: 31]; pJAZ2 rev […] [SEQ ID NO: 32]; pJAZ3 fw cacc[…] [SEQ ID NO: 33]; pJAZ3 rev […] [SEQ ID NO: 34]) into the pENTR™/D-TOPO® system (Invitrogen) and then transferring them to pGWB3. Agrobacterium strain GV3101, containing these constructs, was used to transform Col-0 plants by floral dipping (Clough, S. J. and Bent, A. F. Plant J. 1998, 16(6): 735-743). Several transgenic lines were checked for Kanamycin and Hygromycin resistance and lines carrying one insertion were driven to homozygosis and used for further analysis. pJAZ2:GUS in coi1-30 background was generated by crossing the corresponding parental single homozygous lines. Arabidopsis lines expressing pMYC3:GUS and pMYC4:GUS promoter fusions, were previously reported (Fernandez-Calvo, P. et al. Plant Cell. 2011, 23(2): 701-715). The lines JAZ2-3 (RIKEN_ 13-5433-1) and JAZ2ΔJas (GABI_169B06) were obtained from the Nottingham Arabidopsis Stock Centre. The line JAZ1ΔJas (SEQ ID NO: 61) was obtained from an Arabidopsis activation tagging population (Weigel, D. et al. Plant Physiol. 2000, 122(4): 1003-1013). […]

[4] = tested on: JAZ2 promoter; experiment: pJAZ2:GUS promoter expression (GUS staining); assay type: cell-based, Arabidopsis; details: 50 μM JA, 2 h, young seedlings
Description: as §1

Compound	COR concentration inducing rapid degradation of JAZ2 protein at guard cells [1] [nM]	COR-induced stomata reopening [2]	JAZ1 expression (pJAZ1:GUS) after JA treatment [3]	JAZ2 expression (pJAZ2:GUS) after JA treatment [4]
CC[C@H]1C=C(C(=O)N[C@@]2(C(=O)O)C[C@@H]2CC)[C@H]2CCC(=O)[C@H]2C1 [COR, coronatine]	≤ 50	triggered COR-induced stomata reopening in JAZ2-3 and WT plants, but not in coi1-30		
CC/C=C\C[C@H]1C(=O)CC[C@@H]1CC(=O)O [JA, jasmonic acid]			strongly induced JAZ1 in roots and mesophyll cells	induced it in roots and mesophyll cells of young seedlings
